Data: article PMC10118193, “Biochemical characterization of a GDP-mannose transporter from Chaetomium thermophilum” (PLOS ONE, 2023)

How the values were obtained:
[1] = target: T1, CtVrg4Δ31 (Thermochaetoides thermophila, UniProt G0S534); test: thermal shift titration (Tycho NT.[…]); assay type: binding
T1 construct: gene CTHT_0023930; C-terminal truncation lacking the last 31 residues (Golgi retrieval signal), residues 1-354, N-terminal 12-His tag, expressed in S. cerevisiae FGY217, purified in DDM
T1 sequence (G0S534 entry or part of it, stated change not applied): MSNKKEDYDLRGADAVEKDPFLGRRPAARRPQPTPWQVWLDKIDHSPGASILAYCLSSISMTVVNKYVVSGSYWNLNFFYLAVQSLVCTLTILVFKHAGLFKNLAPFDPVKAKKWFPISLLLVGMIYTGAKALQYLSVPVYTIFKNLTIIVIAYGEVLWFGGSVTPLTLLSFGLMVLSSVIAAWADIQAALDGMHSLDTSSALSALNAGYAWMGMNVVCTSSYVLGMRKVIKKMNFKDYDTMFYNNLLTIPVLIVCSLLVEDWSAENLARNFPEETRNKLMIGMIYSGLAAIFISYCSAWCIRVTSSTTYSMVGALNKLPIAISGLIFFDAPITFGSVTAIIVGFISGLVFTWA

[2] = target: T2, CtVrg4 (Vrg4 from Chaetomium thermophilum) (Thermochaetoides thermophila, UniProt G0S534); test: competition of [3H]GMP uptake into proteoliposomes; assay type: biochemical
T2 construct: gene CTHT_0023930; full length, 385 residues, N-terminal 12-His tag, about 37 kDa, expressed in S. cerevisiae FGY217, purified in DDM
T2 sequence (G0S534 entry or part of it): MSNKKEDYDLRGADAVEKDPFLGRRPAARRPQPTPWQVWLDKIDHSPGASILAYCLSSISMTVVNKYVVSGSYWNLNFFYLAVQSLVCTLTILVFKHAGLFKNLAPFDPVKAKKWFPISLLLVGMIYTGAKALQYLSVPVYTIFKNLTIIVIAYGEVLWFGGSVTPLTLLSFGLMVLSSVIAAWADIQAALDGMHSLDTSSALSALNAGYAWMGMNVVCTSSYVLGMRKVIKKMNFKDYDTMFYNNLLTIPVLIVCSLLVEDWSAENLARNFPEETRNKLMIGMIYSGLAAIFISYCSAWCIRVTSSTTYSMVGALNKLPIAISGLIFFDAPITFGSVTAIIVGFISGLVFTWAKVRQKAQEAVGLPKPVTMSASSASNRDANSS

[3] = target: T3, CtVrg4 (Vrg4 from Chaetomium thermophilum) (Thermochaetoides thermophila, UniProt G0S534, Y310F); test: thermal shift titration (Tycho NT.[…]); assay type: binding
T3 construct: gene CTHT_0023930; full length, 385 residues, N-terminal 12-His tag, about 37 kDa, expressed in S. cerevisiae FGY217, purified in DDM
T3 sequence (G0S534 entry or part of it Y310F): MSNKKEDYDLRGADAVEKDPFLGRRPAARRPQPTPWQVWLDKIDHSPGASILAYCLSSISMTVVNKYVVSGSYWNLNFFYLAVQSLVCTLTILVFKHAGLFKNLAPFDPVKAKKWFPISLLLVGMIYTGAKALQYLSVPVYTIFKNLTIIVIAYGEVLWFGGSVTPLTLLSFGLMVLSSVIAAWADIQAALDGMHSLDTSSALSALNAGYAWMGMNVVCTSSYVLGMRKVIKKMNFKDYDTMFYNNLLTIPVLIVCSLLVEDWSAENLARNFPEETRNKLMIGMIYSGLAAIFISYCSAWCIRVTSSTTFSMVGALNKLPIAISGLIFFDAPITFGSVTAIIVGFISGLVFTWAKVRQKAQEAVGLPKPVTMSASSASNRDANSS

[4] = target: T3, CtVrg4 (Vrg4 from Chaetomium thermophilum); test: competition of [3H]GMP uptake into proteoliposomes; assay type: biochemical
[5] = target: T4, Chymotrypsin-cleaved CtVrg4 (cCtVrg4) (Thermochaetoides thermophila, UniProt G0S534); test: exchange of internal GDP-mannose with external [3H]GMP in proteoliposomes; assay type: biochemical; details: yeast polar lipid proteoliposomes; internal GDP-mannose 1-1000 μM; 0.384 μM external [3H]GMP; room temperature, 10 min
T4 construct: gene CTHT_0023930; full-length His-tagged protein cut by chymotrypsin (50:1, 2 h, 18 °C); crystals of cleaved protein ~25 kDa
T4 sequence (G0S534 entry or part of it): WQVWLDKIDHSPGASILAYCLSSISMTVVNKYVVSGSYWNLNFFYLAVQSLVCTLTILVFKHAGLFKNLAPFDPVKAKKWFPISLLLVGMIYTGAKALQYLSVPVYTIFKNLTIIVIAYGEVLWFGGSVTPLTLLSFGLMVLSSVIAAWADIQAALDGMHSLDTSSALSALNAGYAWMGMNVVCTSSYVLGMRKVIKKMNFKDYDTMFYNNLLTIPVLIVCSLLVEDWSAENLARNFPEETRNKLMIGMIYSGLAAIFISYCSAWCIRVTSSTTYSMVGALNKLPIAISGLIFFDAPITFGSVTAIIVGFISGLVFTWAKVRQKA

[6] = target: T1, CtVrg4Δ31; test: competition of [3H]GMP uptake into proteoliposomes; assay type: biochemical
[7] = target: T2, CtVrg4 (Vrg4 from Chaetomium thermophilum); test: thermal shift titration (Tycho NT.[…]); assay type: binding

Compound	Kd [1] [µM]	IC50 [2] [µM]	Kd [3] [µM]	IC50 [4] [µM]	Km [5] [µM]	IC50 [6] [µM]	Kd [7] [µM]
Nc1nc2c(ncn2[C@@H]2O[C@H](COP(=O)(O)OP(=O)(O)O[C@H]3O[C@H](CO)[C@@H](O)[C@H](O)[C@@H]3O)[C@@H](O)[C@H]2O)c(=O)[nH]1 [GDP-mannose]	58.5	25.5	130	47.1	32.1	48	74.3
Nc1nc2c(ncn2[C@@H]2O[C@H](COP(=O)(O)O)[C@@H](O)[C@H]2O)c(=O)[nH]1 [GMP]	63.2		139				143
